From US10786521B2, “Methods and compositions for treatment of COPD diseases” (Shanghai KE Pharmaceutical Co., LTD, priority 2014, dated 2020)

Assays:
[1] = test system: airway smooth muscle (bronchial rings); test: Relaxation of evoked isometric force of bronchial rings (wire myograph); type: cell-based, mice
Protocol: Briefly, the entire respiratory tree was rapidly removed and immersed in Krebs-Henseleit buffer (118.1 mM NaCl, 4.7 mM KCl, 1.2 mM MgSO4, 2.5 mM CaCl2, 1.0 mM NaH2PO4, 25 mM NaHCO3 and 11.1 mM glucose, pH 7.4). Bronchial rings, 2 mm in length, were isolated from pulmonary bronchi using a dissection microscope. Then the bronchial segments were mounted in a small-vessel wire myograph chamber (Danish Myo Technology, Aarhus, Denmark) by threading on two steel wires (40 μm in diameter) secured to two supports. One support was attached to a force transducer for measurements of isometric force development, and the other was attached to a micrometer controlling ring circumference. The preparation was kept in the chamber, immersed in 5 ml of Krebs-Henseleit solution, bubbled with 5% CO2 and 95% O2 and maintained at 37° C. The initial isometric tension of bronchial ring was set to 0 mN prior to equilibration for 20 min. The bronchial ring was then stretched in order to keep the force at 5 mN followed by an additional equilibration for 20 min. The isometric forces produced by bronchial ring was recorded with a data acquisition and analysis program (Danish Myo Technology, Aarhus, Denmark).
The robust relaxation effect and low risk of toxicity of KE on airway smooth muscle indicates its promising prospects for development. To identify the active ingredients of KE, the KE was divided into three parts including EtOAc phase, n-BuOH phase and water phase using EtOAc and n-BuOH sequential extraction. Upon the airway smooth muscle rings reached a relative steady contraction state evoked by MCh, accumulated volume of these three phases was added to assess the relaxation capacity. […] On the other hand, 1 μL of EtOAc phase just relaxed the rings to 90%.
Their dose-responsive effect on relaxation of airway smooth muscle was measured. When the force evoked by acetylcholine reached a relatively steady state, kudinosides were added to the bath in cumulative concentrations (0.1 μM, 0.3 μM, 1 μM, 3 μM, 10 μM, 30 μM). […] When the concentration of kudinoside D increased to 10 μM, about 50% of the force was relaxed. Strikingly, upon treatment with 30 μM of kudinoside D, more than 80% of the force was relaxed (FIG. 5B). Similarly, 30 μM of kudinoside A also led to 80% inhibition of evoked force. Note that the relaxation effect of kudinosides was completely reversible, because the relaxed muscles restored response to MCh after washing off.

[2] = test system: cytosolic calcium in primary airway smooth muscle cells; test: Calcium image (Fluo-4) of primary airway smooth muscle cells stimulated with acetylcholine; type: cell-based; details: 10 μM compound, then 100 μM acetylcholine; around 16 to 18 minutes
Protocol: Primary airway smooth muscle cells were stimulated with 100 μM acetylcholine (ACh) (upper panels), resulting elevation and maintenance of calcium signals (arrow heads indicate typical alteration of the cells) for 8 minutes. After washing out ACh, new buffer containing 10 μM Kudinoside D was added, and then stimulated with 100 μM acetylcholine.
Calcium image (1-3): Ca^2+ signal was measured by recording 488 nm laser excited Fluo-4 fluorescence with a laser confocal microscope (FV-1000, Olympus). After 3 times washing with D-Hanks solution, primary cultured airway smooth muscle cells were loaded with 2.5 μM Fluo-4 AM and 0.02% pluronic acid (F127) in D-Hanks for 30 min at room temperature. Then washed 3 times with D-Hanks, incubated in H-T buffer at 37° C. for 40 min. Ca^2+ signal was measured by recording 488 nm laser excited Fluo-4 fluorescence with a laser confocal microscope (FV-1000, Olympus).

[3] = test system: permeable (skinned) airway smooth muscle strips; test: Ca2+-induced sustained contraction of alpha-toxin permeabilized bronchial ring at constant calcium; type: cell-based, C57BL/6J mice; details: pCa 4.5 elicited contraction
Protocol: To assess the requirement of calcium reduction for kudinoside-mediated relaxation, smooth muscle tissues permeable were made. Briefly, the fresh bronchial ring were separated by sharp dissection from C57BL/6J mice. Following incubation for 10 minutes in H-T buffer, the muscle strips were treated for 5 minutes in Ca^2+-free H-T buffer and for 5 minutes in buffer A (30 mmol/L TES, 0.5 mmol/L dithiothreitol, 50 mmol/L KCl, 5 mmol/L K2EGTA, 150 mmol/L sucrose, pH 7.4), and then were subsequently permeabilized in α-toxin (16,000 units/mL; Sigma) in buffer A for 40 minutes at room temperature.
Treatment with […] ionomycin (Sigma) in buffer A for 10 minutes was used to deplete Ca^2+ stores. Permeable tissues were washed in pCa 9.0 solution (20 mmol/L TES, 4 mmol/L K2EGTA, 5.83 mmol/L MgCl2, 7.56 mmol/L potassium propionate, 3.9 mmol/L Na2ATP, 0.5 mmol/L dithioerythritol, 16.2 mmol/L phosphocreatine, 15 U/mL creatine kinase, pH 6.9), followed by incubation in pCa 4.5 solution (20 mmol/L TES, 4 mmol/L CaEGTA, 5.66 mmol/L MgCl2, 7.53 mmol/L potassium propionate, 3.9 mmol/L Na2ATP, 0.5 mmol/L dithioerythritol, 16.2 mmol/L phosphocreatine, 15 U/mL creatine kinase, pH 6.9) to elicit a sustained Ca^2+-induced contraction. After wash out the solution, permeable muscle strips were then incubated with pCa 5.0 solution and relaxed by adding Kudinoside D dissolved in pCa 5.0 solution.

For `C[C@@H]1O[C@@H](O[C@H]2[C@H](O[C@H]3CC[C@@]4(C)C(CC[C@]5(C)C4C=CC4=C6[C@]7(CC[C@](C)(OC7=O)[C@@]6(C)O)CC[C@]45C)C3(C)C)OC[C@H](O)[C@@H]2O[C@@H]2O[C@H](CO)[C@@H](O)[C@H](O)[C@H]2O)[C@H](O)[C@H](O)[C@H]1O` (some centres unmarked) [Kudinoside D], the “force relaxed at 10 μM” value ([1]; force evoked by acetylcholine, cumulative concentrations, 10 μM) was “about 50%”, the “force relaxed / inhibition of evoked force at 30 μM” value ([1]; force evoked by acetylcholine, cumulative concentrations, 30 μM) was “more than 80%” and the “relaxation of evoked force of airway smooth muscle / bronchial rings” value ([1]; in vitro, concentration not given) was “significantly relaxed bronchial rings in a dose-dependent manner”. The “cytosolic calcium signal after acetylcholine stimulation” value [2] was “significant reduction of calcium” and the “relaxation of sustained Ca2+-induced contraction of skinned muscle strip” value [3] was “could not relax this sustained contraction, and contrarily slightly enhanced it”.
